The experiment deals with HaCaT cells. Nature of the experiment: ROS measurement (DCF/flow cytometry) in HaCaT cells. The note with it: HG HaCaT cells; 5 μmol/L SF or 20 μmol/L CA every 24 h, 48 h. Format: cell-based, human. Here is the method: Human immortalized keratinocytes HaCaT were obtained from the Arizona Cancer Center (see, […], et al., J Cell Biol 106:761-771, 1988). Cells were grown in Dulbecco's modified Eagle's medium (DMEM) containing low glucose (LG, 5.5 mmol/L) and 10% fetal bovine serum (FBS) in an incubator at 37° C. with 5% CO2. For the experiments, the cells were starved in serum-free LG DMEM for 24 h, then either maintained in LG DMEM or switched to high glucose (HG, 25 mmol/L) DMEM for 2 days (see, e.g., Zheng H, et al., Diabetes 60:3055-3066, 2011; Lan C C, et al., Br J Dermatol 159:1103-1115, 2008). For the treatments, the cells were dosed with 5 μmol/L SF or 20 μmol/L CA. siRNA transfections. […] ROS were measured in HaCaT cells using DCF. […] Then, 48 h later, the cells were switched into fresh medium containing 10 μg/mL DCF, incubated 30 min, and fluorescence intensity was measured by flow cytometry. The rate of cell proliferation was measured by two methods (see, […], et al., Proc Natl Acad Sci USA 108:1433-1438, 2011): 1) detection of Ki67 using indirect immunofluorescence as described previously (see, e.g., Lau A, et al., Mol Cell Biol 30:3275-3285, 2010); and 2) using the xCELLigence system (Roche). For this, 8000 HaCaT cells/well were seeded in LG or HG media, with or without an NRF2 activator, and cell growth was monitored for 72 h. […]

Turning to `C[S@@+]([O-])CCCCN=C=S` [SF, L-sulforaphane], the ROS levels entry is “reduced ROS levels significantly”.

Regarding `O=CC=Cc1ccccc1` [CA, Cinnamaldehyde], the ROS levels entry is listed as “reduced ROS levels significantly”.

Source of the values: US20180344680A1, “COMPOSITIONS AND METHODS FOR TREATMENT, AMELIORATION, AND PREVENTION OF DIABETES-RELATED SKIN ULCERS” (THE ARIZONA BOARD OF REGENTS ON BEHALF OF THE UNIVERSITY OF …, priority 2015, published 2018).
